According to US10947188B2, “Small molecule ferroptosis inducers” (THE TRUSTEES OF COLUMBIA UNIVERSITY IN THE CITY OF NEW YORK, priority 2016, dated 2021):

Tested on: BJeLR
Experiment: Modulatory profiling: Alamar Blue viability, lethal compound cotreated with death modulator (EC50, AUC)
Assay type: cell-based, human
Design: AUC, modulator BJ.Gd3+ / AUC, modulator BJ.LNAME / AUC, modulator BJ.Lmin / AUC, modulator BJ.3MA / AUC, modulator BJ.ALLN / AUC, modulator BJ.Boc D / AUC, modulator BJ.CHX / AUC, modulator BJ.Co2+ / AUC, modulator BJ.Nec-1 / AUC, modulator BJ.Pepstatin / AUC, modulator BJ.TLCK / AUC, modulator BJ.atoc / AUC, modulator BJ.trolox / AUC, modulator BJ.zVAD: unit not given beside the values
Conditions: for AUC, modulator BJ.3MA / AUC, modulator BJ.ALLN / AUC, modulator BJ.Boc D / AUC, modulator BJ.CHX / AUC, modulator BJ.Co2+ / AUC, modulator BJ.DPQ / AUC, modulator BJ.Gd3+ / AUC, modulator BJ.LNAME / AUC, modulator BJ.Lmin/NAD+ / AUC, modulator BJ.Lmin / AUC, modulator BJ.NAD+ / AUC, modulator BJ.NMMA / AUC, modulator BJ.Nec-1 / AUC, modulator BJ.Pepstatin / AUC, modulator BJ.TLCK / AUC, modulator BJ.atoc / AUC, modulator BJ.trolox / AUC, modulator BJ.zVAD: BJeLR cells, modulatory profile value (AUC); for AUC, modulator BJ.3MA: lethal compound cotreated with modulator 3MA; for AUC, modulator BJ.ALLN: lethal compound cotreated with modulator ALLN; for AUC, modulator BJ.Boc D: lethal compound cotreated with modulator Boc D; for AUC, modulator BJ.CHX: lethal compound cotreated with modulator CHX; for AUC, modulator BJ.Co2+: lethal compound cotreated with modulator Co2+; for AUC, modulator BJ.DPQ: lethal compound cotreated with modulator DPQ; for AUC, modulator BJ.Gd3+: lethal compound cotreated with modulator Gd3+; for AUC, modulator BJ.LNAME: lethal compound cotreated with modulator LNAME; for AUC, modulator BJ.Lmin/NAD+: lethal compound cotreated with modulator Lmin/NAD+; for AUC, modulator BJ.Lmin: lethal compound cotreated with modulator Lmin; for AUC, modulator BJ.NAD+: lethal compound cotreated with modulator NAD+; for AUC, modulator BJ.NMMA: lethal compound cotreated with modulator NMMA; for AUC, modulator BJ.Nec-1: lethal compound cotreated with modulator Nec-1; for AUC, modulator BJ.Pepstatin: lethal compound cotreated with modulator Pepstatin; for AUC, modulator BJ.TLCK: lethal compound cotreated with modulator TLCK; for AUC, modulator BJ.atoc: lethal compound cotreated with modulator atoc; for AUC, modulator BJ.trolox: lethal compound cotreated with modulator trolox; for AUC, modulator BJ.zVAD: lethal compound cotreated with modulator zVAD; for EC50: Homo sapiens, BJeLR, 48 h

Row | SMILES | AUC, modulator BJ.3MA | AUC, modulator BJ.ALLN | AUC, modulator BJ.Boc D | AUC, modulator BJ.CHX | AUC, modulator BJ.Co2+ | AUC, modulator BJ.DPQ | AUC, modulator BJ.Gd3+ | AUC, modulator BJ.LNAME | AUC, modulator BJ.Lmin/NAD+ | AUC, modulator BJ.Lmin | AUC, modulator BJ.NAD+ | AUC, modulator BJ.NMMA | AUC, modulator BJ.Nec-1 | AUC, modulator BJ.Pepstatin | AUC, modulator BJ.TLCK | AUC, modulator BJ.atoc | AUC, modulator BJ.trolox | AUC, modulator BJ.zVAD | further results
1 | COc1cc([C@@H]2c3cc4c(cc3[C@H](O)[C@H]3COC(=O)[C@H]23)OCO4)cc(OC)c1OC [Podophyllotoxin] | −0.01267 | −0.003673 | 0.003542 | 0.1228 | 0.09497 | −0.03896 | 0.01784 | 0.005868 | 0.1012 | 0.05457 | 0.09627 | −0.007043 | −0.04167 | 0.02214 | −0.02042 | 0.007072 | −0.01282 | 0.0496 | 
2 | CCCCNc1cc(C)nc(NCc2ccccc2)n1 [CIL18] | 0.0654 | −0.04507 | −0.01841 | −0.01582 | 0.08943 | −0.01318 | −0.01659 | −0.01628 | −0.0502 | −0.05505 | 0.00749 | −0.02371 | 0.0226 | 0.04724 | −0.03824 | −0.0004228 | 0.0395 | −0.005402 | 
3 | OCCNCC(O)Cn1c2ccc(Br)cc2c2cc(Br)ccc21 (centres unmarked) [CIL7] | 0.09188 | −0.02876 | −0.04946 | −0.01056 | 0.09999 | 0.06721 | −0.01897 | −0.03182 | 0.01771 | 0.01256 | 0.009046 | −0.01533 | 0.02534 | 0.06231 | −0.02373 | 0.0008495 | 0.0424 | −0.05834 | 
4 | CCCS(=O)(=O)c1nnnn1-c1cccc(OC)c1 [CIL15] | 0.02761 | −0.06757 | −0.05321 | 0.1287 | 0.0961 | −0.01238 | 0.02535 | −0.02453 | −0.01164 | −0.0004619 | 0.01287 | −0.03623 | 0.02391 | 0.0256 | −0.005629 | −0.01149 | −0.01026 | 0.01243 | 
5 | CC(C)[C@@H]1NC(=O)[C@H](C)OC(=O)[C@@H](C(C)C)NC(=O)[C@@H](C(C)C)OC(=O)[C@H](C(C)C)NC(=O)[C@H](C)OC(=O)[C@@H](C(C)C)NC(=O)[C@@H](C(C)C)OC(=O)[C@H](C(C)C)NC(=O)[C@H](C)OC(=O)[C@@H](C(C)C)NC(=O)[C@@H](C(C)C)OC1=O [Vatinomycin] | 0.03326 | 0.02063 | 0.02046 | 0.3573 | 0.09595 | −0.02201 | −0.0004394 | −0.01323 | 0.1525 | −0.007847 | 0.1101 | −0.02634 | 0.01734 | 0.04946 | 0.006602 | 0.285 | 0.06867 | 0.03769 | 
6 | COc1cccc2c1C(=O)c1c(O)c3c(c(O)c1C2=O)C[C@@](O)(C(=O)CO)C[C@@H]3O[C@H]1C[C@H](N)[C@H](O)[C@H](C)O1 [Doxorubicin] | 0.03113 | 0.01555 | 0.04966 | 0.1412 | 0.1971 | 0.004462 | −0.01105 | 0.01382 | 0.1477 | 0.05475 | 0.1339 | −0.007486 | −0.003677 | 0.01775 | 0.03307 | 0.01689 | 0.01164 | 0.05543 | 
7 | CC[C@]1(O)C[C@H]2CN(CCc3c([nH]c4ccccc34)[C@@](C(=O)OC)(c3cc4c(cc3OC)N(C=O)[C@H]3[C@@](O)(C(=O)OC)[C@H](OC(C)=O)[C@]5(CC)C=CCN6CC[C@]43[C@@H]65)C2)C1 [Vincristine] | −0.03566 | −0.03171 | −0.005016 | 0.1955 | 0.1806 | −0.03044 | 0.007944 | −0.00717 | 0.1721 | 0.06034 | 0.1255 | −0.003354 | −0.05572 | −0.002521 | −0.01255 | 0.04717 | −0.03305 | 0.01856 | 
8 | N/C(Cc1ccc(Cl)cc1)=N\OC(=O)c1cccc2ccccc12 [CIL70] | 0.1014 | −0.07036 | 0.002412 | 0.1304 | −0.0004925 | 0.02973 | 0.04884 | −0.006027 | 0.2633 | 0.2062 | 0.03108 | −0.008547 | 0.1293 | 0.07715 | 0.06301 |  |  |  | EC50 (DMSO): 1.76 µM; EC50 (cotreated with Lmim_NAD): 14.8 µM; EC50 (cotreated with antioxidant Trolox): 7.1 µM; EC50 (cotreated with antioxidant atoc): 18.6 µM; EC50 (cotreated with iron-chelator Lmim): 13.1 µM
9 | CCOc1ccccc1-n1c(C(C)N2CCN(C(=O)COc3ccc(Cl)cc3)CC2)nc2ccccc2c1=O (centres unmarked) [erastin, reference compound] | 0.09348 | −0.05751 | −0.0006165 | 0.09081 | −0.1704 | −0.005058 | −0.0388 | −0.03971 | 0.1538 | 0.1115 | −0.02334 | −0.05625 | 0.1665 | 0.1892 | 0.0155 | 0.3276 | 0.2492 | −0.005301 | 
